Data set [1] concerns the target sc urokinase (Homo sapiens (Human), UniProt P00749). As to the kind of experiment: Inhibiting urokinase with 4-amidinobenzylamide compounds (chromogenic substrate Bzl-βAla-Gly-Arg-pNA, Dixon Ki). In kind it is biochemical. The following applies: 25° C., pH 8.0, means of at least three determinations. The text has this: Determining the Inhibitory Effect
The Ki values are the means of at least three determinations.

The target in data set [2] is uPA (Homo sapiens (Human), UniProt P00749). As to the kind of experiment: Inhibition constants for uPA, determined as in Stürzebecher et al. 1997. In kind it is biochemical.
The target of data set [3] is plasmin (Homo sapiens (Human), UniProt P00747). Nature of the data set: Inhibition constants for plasmin, determined in analogy to uPA. In kind it is biochemical.
The target in data set [4] is thrombin (Homo sapiens (Human), UniProt P00734). Nature of the data set: Inhibition constants for thrombin, determined in analogy to uPA. In kind it is biochemical.
A short description of data set [5]: Elimination (β phase) half-life in rats after intravenous administration, plasma levels by HPLC. The following applies: for half-life: female, Wistar, rat, plasma, iv, 1 mg/kg; for elimination (β phase) half-life t1/2: rats, intravenous administration 1 mg/kg.
Method: Female Wistar rats (240-300 g body weight) were anesthetized (ethylurethane, 2.5 g/ml in NaCl, 0.5 ml/100 g rat), after which the A. carotis located in the neck was exposed. A catheter inserted into this vessel enabled blood to be removed at specified times. The volume administered was 0.5 ml, while 0.9% NaCl was used as the administration solution. […] The resultant loss of blood was offset, immediately after removal of the sample, with 500 μl of 0.9% NaCl solution. Citrate plasma was obtained by centrifuging the blood at 1200×g for 10 min.
For data set [6], the target named is trypsin. As to the kind of experiment: Inhibition constants for trypsin, determined in analogy to uPA. In kind it is biochemical.
The test system of data set [7] is lacZ-labeled human fibrosarcoma cell line (HT1080 AN PKZ12 K15-1). Nature of the data set: Inhibiting metastasis in an animal model (lung metastases, lacZ-labeled human fibrosarcoma cells i.v.). In kind it is in vivo, mice (strain CD1 nu/nu). The following applies: mice, 2 i.p. doses of 1.5 mg/kg daily from day −1 to day 21, lungs evaluated on day 22. The protocol: The influence of the inhibitor benzylsulfonyl-dSer-Ser-4-amidinobenzylamide on metastasis was investigated in female mice (strain CD1 nu/nu, approx. 25 g body weight, Charles River, Sulzfeld). […] from a lacZ-labeled human fibrosarcoma cell line (HT1080 AN PKZ12 K15-1, dissolved in 200 μl of PBS) were administered to the mice i.v. (Krüger et al., Cancer Metastasis Rev. 1998-99, 17, 285-294 and Krüger et al., Oncogene 1998, 16, 2419-2423). The mice in the treated group (n=17) were given 2 i.p. doses (in each case 1.5 mg/kg) of the inhibitor daily from day −1 (one day before the tumor cell inoculation) through to the 21st day (a total of 23 days). The mice in the control group (n=10) were correspondingly given 200 μl of pyrogen-free water containing 5% (v/v) ethanol. On day 22, the mice were sacrificed and the lungs were fixed in 2% formalin and 0.2% glutaraldehyde; after that, the lungs were stained with X-Gal (5-Br-4-Cl-3-indolyl-β-D-galactoside) and the number of lung metastases was determined.

For data set [8] the following is noted: after s.c. administration; following acylation of the D-Ser hydroxyl; cited from earlier work.
The target of data set [9] is trypsin (Bos taurus, UniProt P00760). As to the kind of experiment: Inhibition constants for trypsin, determined in analogy to uPA. In kind it is biochemical.

For orientation: Ki means the equilibrium dissociation constant of an inhibitor or competing ligand from its target. A high value points to a looser hold on the target. For orientation: half-life means the time needed for the level to fall by half in the phase considered. A lower half-life goes with rapid decline.

Counter-ions that a name gives are not always drawn.

plasmin, sequence (P00747 581-810, species assumed): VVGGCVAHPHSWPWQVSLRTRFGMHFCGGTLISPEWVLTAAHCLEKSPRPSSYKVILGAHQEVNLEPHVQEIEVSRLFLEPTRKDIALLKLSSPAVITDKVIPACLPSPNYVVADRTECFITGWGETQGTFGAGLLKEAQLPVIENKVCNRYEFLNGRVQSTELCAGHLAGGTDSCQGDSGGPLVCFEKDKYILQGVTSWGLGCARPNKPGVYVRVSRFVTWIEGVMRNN
plasmin, sequence (P00747 97-580 partner, species assumed): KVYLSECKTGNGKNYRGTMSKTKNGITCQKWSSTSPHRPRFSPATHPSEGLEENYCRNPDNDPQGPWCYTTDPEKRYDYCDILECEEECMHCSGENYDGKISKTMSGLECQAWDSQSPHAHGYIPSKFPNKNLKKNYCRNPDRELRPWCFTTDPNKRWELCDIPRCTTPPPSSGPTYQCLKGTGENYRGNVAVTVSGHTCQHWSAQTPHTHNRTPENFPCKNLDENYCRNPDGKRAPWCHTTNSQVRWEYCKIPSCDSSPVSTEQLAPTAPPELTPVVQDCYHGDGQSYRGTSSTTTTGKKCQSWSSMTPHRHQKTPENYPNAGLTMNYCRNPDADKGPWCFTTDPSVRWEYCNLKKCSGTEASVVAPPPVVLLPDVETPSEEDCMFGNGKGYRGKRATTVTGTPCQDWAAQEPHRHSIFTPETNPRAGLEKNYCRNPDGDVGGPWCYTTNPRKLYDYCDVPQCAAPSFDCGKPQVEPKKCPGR
trypsin, sequence (P00760 24-246 limits assumed): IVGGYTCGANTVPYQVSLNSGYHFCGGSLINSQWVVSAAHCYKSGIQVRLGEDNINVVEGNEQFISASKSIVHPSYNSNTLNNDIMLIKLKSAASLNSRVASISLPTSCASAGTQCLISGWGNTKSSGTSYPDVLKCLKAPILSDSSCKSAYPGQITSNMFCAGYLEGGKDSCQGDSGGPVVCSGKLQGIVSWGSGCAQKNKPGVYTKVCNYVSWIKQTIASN
trypsin (Bos taurus, UniProt P00760), sequence (P00760 24-246 limits assumed): as above

Take `N=C(N)c1ccc(CNC(=O)[C@H](CC(=O)O)NC(=O)[C@@H](CO)NS(=O)(=O)Cc2ccccc2)cc1`: the affinity in data set [1] corresponds to a Ki of 0.86 µM.

In data set [1], `N=C(N)c1ccc(CNC(=O)[C@H](CCC(=O)O)NC(=O)[C@@H](CO)NS(=O)(=O)Cc2ccccc2)cc1` [Benzylsulfonyl-D-Ser-Glu-4-amidinobenzylamide×TFA] returned a Ki of 0.16 µM.

For `N=C(N)c1ccc(CNC(=O)[C@H](CCCCNC(=O)COCC(=O)NCCOCCOCCOCCOCCOCCOCCOCCN)NC(=O)[C@@H](CO)NS(=O)(=O)Cc2ccccc2)cc1` [Example 10, Bzls-dSer-Lys(CO—CH2—O—CH2—CO—NH—CH2—CH2-Hexaethylene-glycol-CH2—CH2—NH2)-4-amidinobenzylamide×2 TFA], the Ki in data set [2] is 0.042 µM; in [3], 0.53 µM; in data set [4], 1.4 µM. Further, in data set [5], the half-life is 52.8 min.

For the molecule `N=C(N)c1ccc(CNC(=O)[C@H](CO)NC(=O)[C@@H](CO)NS(=O)(=O)Cc2cccc(C(=O)O)c2)cc1` [R=3-COOH, X=CH, R1=CH2—OH], the Ki turned out to be 0.075 µM in data set [2], 4.2 µM in data set [3], 0.058 µM in [6] and 200 µM in data set [4]. The “elimination (β phase) half-life t1/2” value in [5] is 25.8 min.

Regarding `C[C@H](NC(=O)[C@@H](CO)NS(=O)(=O)Cc1cccc(C(=O)O)c1)C(=O)NCc1ccc(C(=N)N)cc1` [R=3-COOH, X=CH, R1=CH3], the Ki was found to be 0.03 µM in [2], 4.7 µM in data set [3], 0.021 µM in data set [6] and 8.3 µM in data set [4]. Further, in [5], the “elimination (β phase) half-life t1/2” value was found to be 25.2 min.

For the molecule `N=C(N)c1ccc(CNC(=O)CNC(=O)[C@@H](CO)NS(=O)(=O)Cc2cccc(C(=O)O)c2)cc1.O=C(O)C(F)(F)F` [R=3-COOH, X=CH, R1=H, 3-(HOOC)Benzylsulfonyl-dSer-Gly-4-amidinobenzylamide×TFA], the Ki in [2] amounted to 0.16 µM; in data set [3], 59 µM; in data set [4], 150 µM. The molecule also showed a half-life in data set [5] of 78 min.

Regarding `N=C(N)c1ccc(CNC(=O)[C@H](CO)NC(=O)[C@@H](CO)NS(=O)(=O)Cc2ccc(C(=O)O)cc2)cc1` [R=4-COOH, X=CH, R1=CH2—OH], the Ki in data set [2] was 0.23 µM; in data set [3], 6.2 µM; in data set [6], 0.1 µM; in data set [4], 120 µM. The “elimination (β phase) half-life t1/2” value in data set [5] came to 25.8 min.

With `C[C@H](NC(=O)[C@@H](CO)NS(=O)(=O)Cc1ccc(C(=O)O)cc1)C(=O)NCc1ccc(C(=N)N)cc1` [R=4-COOH, X=CH, R1=CH3], the inhibition constant Ki is 0.038 µM in [2], 3 µM in data set [3], 0.013 µM in [6] and 2.3 µM in [4]. Besides, the “elimination (β phase) half-life t1/2” value in data set [5] was found to be 39.6 min.

Take `N=C(N)c1ccc(CNC(=O)CNC(=O)[C@@H](CO)NS(=O)(=O)Cc2ccc(C(=O)O)cc2)cc1` [R=4-COOH, X=CH, R1=H]: the Ki in data set [2] amounted to 0.15 µM; in data set [3], 35 µM; in data set [6], 0.48 µM; in data set [4], 170 µM. Besides, the “elimination (β phase) half-life t1/2” value in data set [5] amounted to 120 min.

As for `N=C(N)c1ccc(CNC(=O)[C@H](CN)NC(=O)[C@@H](CO)NS(=O)(=O)Cc2ccccc2)cc1` [R=H, X=CH, R1=CH2—NH2], the Ki was found to be 0.036 µM in data set [2], 0.81 µM in [3], 0.021 µM in [6] and 0.78 µM in data set [4]. Further, in [5], the “elimination (β phase) half-life t1/2” value was 24 min.

With `N=C(N)c1ccc(CNC(=O)[C@H](COCc2ccccc2)NC(=O)[C@@H](CO)NS(=O)(=O)Cc2ccccc2)cc1` [R=H, X=CH, R1=CH2—O(Bzl)], the Ki in data set [2] worked out at 0.028 µM; in data set [3] it was 0.27 µM; in data set [6], 0.0068 µM; in data set [4] it was 0.48 µM.

On to `N=C(N)c1ccc(CNC(=O)[C@H](CO)NC(=O)[C@@H](CO)NS(=O)(=O)Cc2ccccc2)cc1` [R=H, X=CH, R1=CH2—OH, Benzylsulfonyl-dSer-Ser-4-amidinobenzylamide×TFA], for which the figures for the Ki in [2], in data set [3] and in [4] were 0.025 µM, 0.75 µM and 14 µM, respectively. For the same molecule, the “number of lung metastases as compared with the control group (100%)” value in data set [7] was determined as 4.6%. Further, the half-life in data set [5] was 30 min.

`CC(OCc1ccccc1)[C@H](NC(=O)[C@@H](CO)NS(=O)(=O)Cc1ccccc1)C(=O)NCc1ccc(C(=N)N)cc1` (stereo partly drawn) [R=H, X=CH, R1=CH(OBzl)CH3]: the Ki in data set [2] is 0.061 µM; in data set [3] it was 1.1 µM; in data set [6] it was 0.011 µM; in data set [4] it was 0.1 µM.

With `CC(O)[C@H](NC(=O)[C@@H](CO)NS(=O)(=O)Cc1ccccc1)C(=O)NCc1ccc(C(=N)N)cc1` (stereo partly drawn) [R=H, X=CH, R1=CH(OH)CH3], the Ki amounted to 0.11 µM in data set [2], 1.4 µM in data set [3], 0.03 µM in data set [6] and 4 µM in data set [4].

As for `N=C(N)c1ccc(CNC(=O)CNC(=O)[C@@H](CO)NS(=O)(=O)Cc2ccccc2)cc1` [R=H, X=CH, R1=H, Benzylsulfonyl-D-Ser-Gly-4-amidinobenzylamide], the results for the Ki in data set [3], in data set [6] and in data set [4] were 11 µM, 0.15 µM and 13 µM, respectively. For the same molecule, in data set [5], the “elimination (β phase) half-life t1/2” value was 17.4 min.

As for `N=C(N)c1ccc(CNC(=O)[C@H](CCCN=C(N)N)NC(=O)[C@@H](CO)NS(=O)(=O)Cc2ccccc2)cc1` [X=Arg, Benzylsulfonyl-dSer-Arg-4-amidinobenzylamide×2 TFA], the inhibitory constant (Ki) turned out to be 0.2 µM in [3] and 4.7 µM in [4]. The molecule further showed a half-life in [5] of 36 min.

As for `N=C(N)c1ccc(CNC(=O)[C@H](CCCCN)NC(=O)[C@@H](CO)NS(=O)(=O)Cc2ccccc2)cc1` [X=Lys, Benzylsulfonyl-dSer-Lys-4-amidinobenzylamide×2 TFA], the Ki is 0.36 µM in data set [3] and 4.3 µM in data set [4]. The same molecule gave a half-life in data set [5] of 42 min.

With `CC(C)COC(=O)N[C@H](CO)C(=O)N[C@@H](C)C(=O)N[C@H](C=O)CCCNC(=N)N` [iBuOCO-D-Ser-Ala-Arg-H], the relative bioavailability in [8] is 87%.

Take “Benzylsulfonyl-dSer-Lys(CO—O-PEG5000-OMe)-4-amidinobenzylamide×Acetate [Example 9]”: the Ki was found to be 0.095 µM in [2], 0.73 µM in data set [3], 0.034 µM in [9] and 1.7 µM in [4].

The values are drawn from US8476306B2, “Urokinase inhibitors, production and use thereof” (The Medicines Company (Leipzig) GmbH, priority 2002, dated 2013).
